{
  "source": "patent US8048882B2",
  "about": "“Pharmaceutical compositions with increased activity” (priority 2003, dated 2011)",
  "key": {"[1]": {"test_system": "spinal reflex (L5 ventral root reflex potential)", "test": "Inhibition of the spinal reflex in isolated hemisected spinal cord preparation, in vitro", "parameters": "species or system rat", "settings": "alone", "experimental": "Our experiments were performed according to the methods described by Otsuka and Konishi (Otsuka, M., Konishi, S. Electrophysiology of mammalian spinal cord in vitro. Nature 252, 733-734; 1974), with slight modifications (Kocsis, P. et al. Participation of AMPA- and NMDA-type excitatory amino acid receptors in the spinal reflex transmission, in rat. Brain Research Bulletin 60: 81-91; 2003). The L5 dorsal root of the isolated, hemisected spinal cord preparation was stimulated by supramaximal electrical impulse and the reflex potential from the L5 ventral root was recorded. Different components of the reflex potential obtained are well distinguishable based on their post-stimulus latencies and durations. […] This preparation is ideal for the investigation of pharmacodynamic interactions between two substances, since metabolic factors take no part in them. […] Cont (control)=effect of crobenitine in itself; as well as in the presence of fluoxetine (Fluo; 1 μM), sertraline (Sert; 0.5 μM), paroxetine (Paro; 10 nM) and citalopram (Cital; 5 nM)."}, "[2]": {"test": "Rotarod test", "settings": "male, NMRI, mouse, in vivo, read-out: ED50, rotarod test in mice", "experimental": "By the rotarod test (Dunnham, N. W., Miya, T. S. J. Am. Pharm. Assoc. 46, 208, 1957) impaired coordination and disorders of the voluntary movement as possible side effects can be studied. In this respect the change in the potency of the voltage-dependent sodium channel blockers caused by the serotonin uptake inhibitors was far less pronounced, resulting in a more favourable side effect profile of the combinations compared to that of the parent compounds.\nThe tests were carried out using male NMRI mice (19-21 g). Experiments performed with different pretreatment times produced similar results."}, "[3]": {"test_system": "GYKI 20039-induced tremor", "test": "GYKI 20039-induced tremor test", "format": "in vivo, mice", "settings": "for change of effectiveness in tremor test when a serotonin uptake inhibitor is present: with 10 mg/kg fluoxetine or 10 mg/kg sertraline i.p., FIG. 4", "experimental": "Tremor can be induced by administration of GYKI 20039 (3-(2,6-diclorophenyl)-2-iminothiazolidine). The method was published by Kocsis P., Tarnawa I., Kovacs Gy., Szombathelyi Zs., Farkas S., 2002; Acta Pharmaceut. Hung., 72:49-61; U.S. Pat. No. 5,340,823, 1994, U.S. Pat. No. 5,198,446, JP 1992270293, EP 0468825, 1990 HU 4647.\nTests were carried out in male NMRI mice (19-21 g), the active substances were administered i.p., simultaneously.\nExperiments with combinations containing the active agents in a fixed ratio were also performed."}, "[4]": {"test_system": "phenylquinone-induced acute pain", "test": "Phenylquinone-induced acute pain (writhing test)", "format": "in vivo, mice", "settings": "with 10 mg/kg fluoxetine given 15 minutes prior to lamotrigine (i.p.); FIG. 5", "text": "The method used was described by Hendershot and Forsaith in 1959. (Kazuko Goto et al. Analgesic Effect of Mofezolac, a Non-Steroidal Anti-Inflammatory Drug, Against Phenylquinone-Induced Acute Pain in Mice. Prostaglandins & other Lipid Mediators 56: 245-254; 1998, Prem Prakash Singh et al. Acetic Acid and Phenylquinone WrithingTest: A Critical Study in Mice. Meth and Find Exptl Clin Pharmacol 5(9): 601-606; 1983.) Acute pain was induced by injecting phenylquinone, an irritant, into the abdominal cavity (0.02% solution, 0.1 ml/10 g bodyweight). […] Experiments were performed in male NMRI mice (19-21 g)."}, "[5]": {"test_system": "maximal electroshock seizures", "test": "Inhibition of maximal electroshock seizures (MES)", "format": "in vivo, mice", "settings": "sodium channel blocker 30 minutes prior to electroshock", "experimental": "Experiments in this respect were carried out on male NMRI mice (19-21 g).\nSerotonin uptake inhibitors were administered i.p. 45 minutes, while sodium channel blockers 30 minutes prior to the electroshock."}, "[6]": {"settings": "in combination with fluoxetine (10 mg/kg)"}, "[7]": {"settings": "in combination with sertraline (10 mg/kg)"}, "[8]": {"settings": "with fluoxetine (10 mg/kg) i.p. 45 minutes"}, "[9]": {"settings": "with sertraline (10 mg/kg) i.p. 45 minutes"}, "[10]": {"settings": "10 mg/kg intraperitoneal dose in mice"}},
  "note": "Where two headings read alike, the source gives them in different places.",
  "data": [
    {"smiles": "CCc1ccc(C(=O)C(C)CN2CCCCC2)cc1", "note": "(stereo not shown) [eperisone]", "values": [
      {"measurement": "spinal reflex inhibitory effect", "setting": "[1]", "value": "considerable spinal reflex inhibitory effect"}
    ]},
    {"smiles": "CNCCC(Oc1ccc(C(F)(F)F)cc1)c1ccccc1", "note": "(stereo not shown) [fluoxetine]", "values": [
      {"measurement": "ED50 at 20 min", "setting": "[2]; alone", "value": 43.5, "unit": "mg/kg"},
      {"measurement": "ED50 at 35 min", "setting": "[2]; alone", "value": 45.8, "unit": "mg/kg"}
    ]},
    {"smiles": "Cc1ccc(C(=O)C(C)CN2CCCCC2)cc1", "note": "(stereo not shown) [tolperisone]", "values": [
      {"measurement": "spinal reflex inhibitory effect", "setting": "[1]", "value": "considerable spinal reflex inhibitory effect"}
    ]},
    {"smiles": "CN[C@H]1CC[C@@H](c2ccc(Cl)c(Cl)c2)c2ccccc21", "note": "[sertraline]", "values": [
      {"measurement": "ED50 at 20 min", "setting": "[2]; alone", "value": 112, "unit": "mg/kg"},
      {"measurement": "ED50 at 35 min", "setting": "[2]; alone", "value": 120, "unit": "mg/kg"}
    ]},
    {"smiles": "Nc1nnc(-c2cccc(Cl)c2Cl)c(N)n1", "note": "[lamotrigine]", "values": [
      {"measurement": "ED50 at 20 min", "setting": "[2]; alone", "value": 34.3, "unit": "mg/kg"},
      {"measurement": "ED50 at 20 min", "setting": "[2]; [6]", "value": 28.5, "unit": "mg/kg"},
      {"measurement": "ED50 at 35 min", "setting": "[2]; [6]", "value": 31.1, "unit": "mg/kg"},
      {"measurement": "ED50 at 20 min", "setting": "[2]; [7]", "value": 31.9, "unit": "mg/kg"},
      {"measurement": "ED50 at 35 min", "setting": "[2]; [7]", "value": 30.8, "unit": "mg/kg"},
      {"measurement": "ID50 (i.p.) (calculated for the sodium channel blocker in the combination)", "setting": "[3]; tremor test, male NMRI mice, i.p., components administered simultaneously in fixed ratio", "value": 39.79, "unit": "mg/kg"},
      {"measurement": "change of effectiveness in tremor test when a serotonin uptake inhibitor is present", "setting": "[3]", "value": "increase of their effectiveness"},
      {"measurement": "change in analgesic potency (ID50, writhing test) in the presence of a serotonin uptake inhibitor", "setting": "[4]", "value": "Increase in the analgesic potency"},
      {"measurement": "ID50 (MES inhibition in mice)", "setting": "[5]; alone", "value": 4.5, "unit": "mg/kg"},
      {"measurement": "ID50 (MES inhibition in mice)", "setting": "[5]; [8]", "value": 1.3, "unit": "mg/kg"},
      {"measurement": "ID50 (MES inhibition in mice)", "setting": "[5]; [9]", "value": 1.4, "unit": "mg/kg"}
    ]},
    {"smiles": "N=C1SCCN1c1c(Cl)cccc1Cl", "note": "[GYKI 20039, 3-(2,6-diclorophenyl)-2-iminothiazolidine]", "values": [
      {"measurement": "duration of induced tremor", "setting": "[3]; [10]", "value": "30 to 60", "unit": "min"},
      {"measurement": "tremor induction", "setting": "[3]; [10]", "value": "intensive tremor"}
    ]},
    {"smiles": "C[C@@H](CN1CC[C@@]2(C)c3cccc(O)c3C[C@@H]1C2(C)C)OCc1ccccc1", "note": "[crobenetine]", "values": [
      {"measurement": "ED50 at 20 min", "setting": "[2]; alone", "value": 68.1, "unit": "mg/kg"},
      {"measurement": "ED50 at 20 min", "setting": "[2]; [6]", "value": 38.6, "unit": "mg/kg"},
      {"measurement": "ED50 at 35 min", "setting": "[2]; [6]", "value": 51, "unit": "mg/kg"},
      {"measurement": "ED50 at 20 min", "setting": "[2]; [7]", "value": 36.8, "unit": "mg/kg"},
      {"measurement": "ED50 at 35 min", "setting": "[2]; [7]", "value": 53.1, "unit": "mg/kg"},
      {"measurement": "change of effectiveness in tremor test when a serotonin uptake inhibitor is present", "setting": "[3]", "value": "increase of their effectiveness"},
      {"measurement": "ID50 (MES inhibition in mice)", "setting": "[5]; alone", "value": ">>20"},
      {"measurement": "ID50 (MES inhibition in mice)", "setting": "[5]; [8]", "value": 17, "unit": "mg/kg"},
      {"measurement": "ID50 (MES inhibition in mice)", "setting": "[5]; [9]", "value": 15.5, "unit": "mg/kg"}
    ]}
  ]
}
